Laboratory results reported in patent US9730970B2, “Seaweed extracts, unsaturated aldehydes, and methods of treatment” (University of Florida Research Foundation, Inc., priority 2013, dated 2017).

Test system: NQO1
Experiment: qPCR of NQO1 transcription in IMR-32 cells
Assay type: cell-based, human
Description: IMR-32 cells (1×10^6 cells/well) were seeded in 6-well plates one day before treatment. Cells were treated with variable concentrations of purified compounds 1-4 for 12 h. Total RNA was extracted with the RNeasy Mini Kit (Qiagen). cDNA was synthesized from 2 μg of total RNA by using SuperScript II Reverse Transcriptase (Invitrogen) and Oligo(dT)12-18 primer (Invitrogen). Real-time PCR was performed in triplicate using GAPDH expression as internal control for normalization.

SMILES | activation of NQO1 transcription (positive control under identical conditions) | activation of NQO1 transcription (20 μg/mL, 12 h)
CC(C)(C)c1cc(O)ccc1O [tBHQ, Tert-butylhydroquinone] | 5.9 fold | 
CCC(Cl)C(O)C(O)/C=C/C=C/C=O (centres unmarked) [Compound 4, 8-chloro-6,7-dihydroxydeca-2,4-dienal] |  | 6.4 fold
